Measured values taken from patent US20210369720A1, “SYNERGISTIC COMPOSITION HAVING NEUROPROTECTIVE PROPERTIES AND METHODS OF USE THEREOF” (Rutgers, The State University of New Jersey, priority 2018, published 2021).

Key:
Assay type in all cases: in vivo
Iba-1 = assay: Immunohistochemical staining of Iba-1 in the striatum, α-Syn PFF inoculated WT mice; settings: EHT 12 mg/kg/day and/or caffeine 50 mg/kg/day, vs untreated α-Syn PFF inoculated group
Source text: Thy1-α-synuclein transgenic mice (Syn^Tg) on BDF1 background overexpressing human wild-type α-synuclein under the control of the Thy1 promoter were maintained by mating heterozygous transgenic females with WT BDF1 males (Rockenstein E, et al. (2002) Differential neuropathological alterations in transgenic mice expressing alpha-synuclein from the platelet-derived growth factor and Thy-1 promoters. J Neurosci Res 68(5):568-578). BDF1 mice (mixed C57BL/6-DBA/2) were generated every three months by mating female C57BL/6 (The Jackson Laboratory) and male DBA/2 mice (Charles River). Experiments were performed with male transgenic mice and their WT littermates. […] Wild-type littermates received regular water and control chow. […] At two months of age, mice were inoculated with α-Syn PFF unilaterally in the striatum. These treatments continued throughout the experiment until animals were sacrificed. Mice were weighed and their food and water intake was quantified weekly. Animals were housed 2-5/cage in an AAALAC approved facility in a temperature- and humidity-controlled environment under a 12-hour light/dark cycle and were maintained on a diet of lab chow and water ad libitum. […]

PP2A = assay: Western blot of PP2A methylation, ipsilateral striatal tissue lysates of α-Syn PFF inoculated mice; settings: EHT 12 mg/kg/day and/or caffeine 50 mg/kg/day, vs untreated α-Syn PFF inoculated mice
Source text: (§1) Thy1-α-synuclein transgenic mice (Syn^Tg) on BDF1 background overexpressing human wild-type α-synuclein under the control of the Thy1 promoter were maintained by mating heterozygous transgenic females with WT BDF1 males (Rockenstein E, et al. (2002) Differential neuropathological alterations in transgenic mice expressing alpha-synuclein from the platelet-derived growth factor and Thy-1 promoters. J Neurosci Res 68(5):568-578). BDF1 mice (mixed C57BL/6-DBA/2) were generated every three months by mating female C57BL/6 (The Jackson Laboratory) and male DBA/2 mice (Charles River). Experiments were performed with male transgenic mice and their WT littermates. […] Wild-type littermates received regular water and control chow. […] At two months of age, mice were inoculated with α-Syn PFF unilaterally in the striatum. These treatments continued throughout the experiment until animals were sacrificed. Mice were weighed and their food and water intake was quantified weekly. Animals were housed 2-5/cage in an AAALAC approved facility in a temperature- and humidity-controlled environment under a 12-hour light/dark cycle and were maintained on a diet of lab chow and water ad libitum. All animal procedures were approved by the Rutgers-Robert Wood Johnson Medical School Institutional Animal Care and Use Committee and were performed according to the National Institutes of Health Guide for the Care and Use of Laboratory Animals.
α-Syn PFF solution was sonicated at 60% amplitude 30 times (0.5 sec on, 0.5 sec off). During the stereotactic surgery, two month old WT C57BL/6 mice were anesthetized by Ketamine/xylazine (90/4.5 mg/kg, i.p., Ketaset from Zoetis, and Anased from Akorn) and positioned in a digital stereotaxic apparatus (Stoelting, Wood Dale, Ill.). […]
Human neuroblastoma SH-SY5Y cells were cultured in DMEM-F12 with 10% FBS. […] Protein concentration was determined by bicinchonic acid (BCA) method (Pierce), equal amount of protein was separated on 5-20% SDS-PAGE gel (Genescript) and transferred to nitrocellulose or PVDF membrane (Biorad). […]

[1] = system: phosphorylated α-synuclein (p-α-Syn); assay: Immunohistochemical staining of p-α-Syn, α-Syn PFF inoculated WT mice; settings: EHT 12 mg/kg/day and/or caffeine 50 mg/kg/day
Source text: as §1
α-Syn PFF solution was sonicated at 60% amplitude 30 times (0.5 sec on, 0.5 sec off). During the stereotactic surgery, two month old WT C57BL/6 mice were anesthetized by Ketamine/xylazine (90/4.5 mg/kg, i.p., Ketaset from Zoetis, and Anased from Akorn) and positioned in a digital stereotaxic apparatus (Stoelting, Wood Dale, Ill.). A midline sagittal incision was made in the scalp, and a hole was drilled in the skull over the right striatum according to the coordinates below. All injections were made using a Hamilton neuros syringe equipped with a 33 gauge needle and attached to a Quintessential Stereotaxic Injector (Stoelting, Wood Dale, Ill.). A total of 5∝g/2.5 ul of α-Syn PFF was infused in the dorsal striatum (+0.2 mm relative to Bregma, +2.0 mm from midline, +2.6 mm beneath the dura) at a delivery rate of 0.2∝l/min (61). The needle was kept in place for 5 min following the infusion to prevent reflux before withdrawing.
Immunohistochemical analyses were performed as described previously (Lee et al., 2011; 2012). Mice were perfused transcardially with PBS, and brains were removed and post-fixed in 10% formalin at 4° C. overnight. Fixed brains were then sectioned coronally in 30 am thickness using a cryostat and collected as sets of slices with the same interval. Free-floating sections were blocked by 1% BSA and 0.2% Triton X100 in PBS. Sections were then incubated with primary antibody overnight at 4° C. and biotinylated secondary antibody for 1 hour at room temperature.
Vectastain elite ABC kit (Vector Laboratories, Burlingame, Calif.) and 3,3′-diaminobenzidine (Sigma-Aldrich) were used for amplifying and color development. Images were captured by Nikon Eclipse 55i. Staining intensity and phosphorylated α-synuclein (p-α-Syn) aggregate counts were obtained by Image Pro Plus. Intensity calibration was set to the level of a blank area in each image. HSI (hue, saturation and intensity) was used for the color selection with the standard parameters of H: 0-30, S: 0-255 and I: 0-160. […]

[2] = vs untreated α-Syn PFF inoculated mice

For `CCCCCCCCCCCCCCCCCCCC(=O)NCCc1c[nH]c2ccc(O)cc12` [EHT, eicosanoyl-5-hydroxytryptamide], the “microglial activation (Iba-1) in the contralateral striatum” value (Iba-1) was “only a partial effect that was statistically insignificant”, the “microglial activation (Iba-1) in the ipsilateral striatum” value (Iba-1) was “only a partial effect that was statistically insignificant” and the “methyl- to demethyl-PP2A ratio” value (PP2A) was “insignificant increase”. The methyl-PP2A levels (PP2A) was “insignificant increase”, the “p-α-Syn immunoreactivity in the ipsilateral nigra” value [1] was “less abundant” and the “p-α-Syn in the contralateral striatum” value [1, 2] was “partially but insignificantly reduced”. The “p-α-Syn in the ipsilateral striatum” value [1, 2] was “partially but insignificantly reduced”.
